This note sets out measurements from patent US9464082B2, “Aryl and arylalkyl substituted pyrazolyl and pyrimidinyl tricyclic enones as antioxidant inflammation modulators” (AbbVie Inc., priority 2014, dated 2016).

Structures are written as SMILES.

The subject of the experiment is IFNγ-Induced NO Production. Description: Nitric Oxide Suppression Assay (Suppression of IFNγ-Induced NO Production). The settings on record: RAW264.7; RAW 264.7 mouse macrophage cells; 2 hour pre-treatment with compound (3 μM to 0.3 nM, 10 point curve); 20 ng/mL interferon gamma, ~18 hour; Griess detection; n=2-3 in duplicates. It counts as cell-based. Here is the method: RAW 264.7, a mouse macrophage cell line, was obtained from American Type Culture Collection (Manassas Va.) and maintained in the log phase of growth in Dulbecco's Modified Eagle's Medium (DMEM), 10% heat inactivated fetal calf serum and 100 units/mL antibiotic-antimycotic (AA). Cells were cultured and maintained in a humidified incubator at 37° C. under 5% CO2 and 95% air. Cells were sub-cultured every 3 days by scraping and were not used beyond passage 20. All cell culture supplies were obtained from Life Technologies (Grand Island, N.Y.).
RAW 264.7 cells were plated 1 day in advance of experiment at a concentration of 80,000 cells/well onto CellBIND® 96 well plates (Corning, N.Y.) in a total volume of 100 μL. The next day, pre-treat cells with compounds (from 3 μM to 0.3 nM serially diluted in a 10 point curve) from a 10× stock by adding 10 μL per well in complete DMEM media containing 10% fetal calf serum. The plates were centrifuged for 3 minutes at 400×g at room temperature followed by 2 hour incubation at 37° C. The cells were then incubated overnight at 37° C. with 10 μL of the insult, interferon gamma (R&D Systems, Minneapolis, Minn.), from a 10× stock for a final concentration of 20 ng/mL. The plates were centrifuged for 3 minutes at 400×g at room temperature followed by ˜18 hour incubation at 37° C. The following day, transfer 50 μL cell culture supernatant from each well into a clear bottom 96 well plate and follow the instructions from Promega's Griess Detection Kit #G2930 (Madison, Wis.) which involves the addition of 50 μL of the provided sulfanilamide solution for a 5-10 minute incubation at room temperature. Next add 50 μL of the provided N-1-napthylethylenediamine dihydrochloride (NED) solution for a 5-10 minute incubation at room temperature and protected from light. If any air bubbles were introduced into the well, the plates need to be centrifuged for 5 minutes at 400×g at room temperature to avoid interference with absorbance readings. The plates were read for absorbance within 30 minutes with a filter between 520 nm and 550 nm.
For the ability of compounds to suppress the increase in nitric oxide release, the percent maximal intensity of nitric oxide detected in each well was normalized to that induced by the peak value for 20 ng/mL of interferon gamma alone and plotted against the compound concentration to calculate IC50 values and to control for plate-to-plate variability. Concentration-response data were analyzed using GraphPad Prism (San Diego, Calif.); the IC50 values were derived from a single curve fit to the mean data of n=2-3, in duplicates.
All compounds were dissolved in dimethyl sulfoxide at 10 mM stock solutions and tested at a concentration that the dimethyl sulfoxide levels never exceeded 1%.
In the case of `C[C@@H]1C(=O)C(C#N)=C[C@]2(c3ccccc3)c3nc(N4CCOCC4)ncc3CC[C@@H]12` [Example 19, (6aS,7S,10aR)-7-methyl-2-(morpholin-4-yl)-8-oxo-10a-phenyl-5,6,6a,7,8,10a-hexahydrobenzo[h]quinazoline-9-carbonitrile], the IC50 was determined as 36.2 nM.
To `Cc1nc(O)c2c(n1)[C@@]1(c3ccccc3)C=C(C#N)C(=O)[C@@H](C)[C@@H]1CC2` [Example 20, (6aS,7S,10aR)-4-hydroxy-2,7-dimethyl-8-oxo-10a-phenyl-5,6,6a,7,8,10a-hexahydrobenzo[h]quinazoline-9-carbonitrile] belongs 45 nM; to `Cc1nc(-c2ccccc2)c2c(n1)[C@@]1(c3ccccc3)C=C(C#N)C(=O)[C@@H](C)[C@@H]1CC2` [Example 21, (6aS,7S,10aR)-2,7-dimethyl-8-oxo-4,10a-diphenyl-5,6,6a,7,8,10a-hexahydrobenzo[h]quinazoline-9-carbonitrile], 9.94 nM; to `Cc1nc(-c2cncnc2)c2c(n1)[C@@]1(c3ccccc3)C=C(C#N)C(=O)[C@@H](C)[C@@H]1CC2` [Example 22, (6aS,7S,10aR)-2,7-dimethyl-8-oxo-10a-phenyl-4-(pyrimidin-5-yl)-5,6,6a,7,8,10a-hexahydrobenzo[h]quinazoline-9-carbonitrile], 31.8 nM.
For `Cc1nc(-c2ccoc2)c2c(n1)[C@@]1(c3ccccc3)C=C(C#N)C(=O)[C@@H](C)[C@@H]1CC2` [Example 23, (6aS,7S,10aR)-4-(3-furyl)-2,7-dimethyl-8-oxo-10a-phenyl-5,6,6a,7,8,10a-hexahydrobenzo[h]quinazoline-9-carbonitrile], the IC50 amounted to 6.98 nM.
Take `C[C@@H]1C(=O)C(C#N)=C[C@]2(c3ccccc3)c3n[nH]cc3CC[C@@H]12` [Example 24, (5aS,6S,9aR)-6-methyl-7-oxo-9a-phenyl-4,5,5a,6,7,9a-hexahydro-2H-benzo[g]indazole-8-carbonitrile]: the IC50 was determined as 67.7 nM.
Regarding `COc1nc(-c2ccccc2F)nc2c1CC[C@H]1[C@H](C)C(=O)C(C#N)=C[C@]21c1ccccc1` [Example 25, (6aS,7S,10aR)-2-(2-fluorophenyl)-4-methoxy-7-methyl-8-oxo-10a-phenyl-5,6,6a,7,8,10a-hexahydrobenzo[h]quinazoline-9-carbonitrile], the IC50 came to 37.8 nM.
The value for `C[C@@H]1C(=O)C(C#N)=C[C@]2(c3ccccc3)c3c(c(-c4cccnc4)nn3C)CC[C@@H]12` [Example 26, (5aS,6S,9aR)-1,6-dimethyl-7-oxo-9a-phenyl-3-(pyridin-3-yl)-4,5,5a,6,7,9a-hexahydro-1H-benzo[g]indazole-8-carbonitrile] was 1.3 nM; that for `Cc1nc(-c2ccncc2)c2c(n1)[C@@]1(c3ccccc3)C=C(C#N)C(=O)[C@@H](C)[C@@H]1CC2` [Example 27, (6aS,7S,10aR)-2,7-dimethyl-8-oxo-10a-phenyl-4-(pyridin-4-yl)-5,6,6a,7,8,10a-hexahydrobenzo[h]quinazoline-9-carbonitrile] was 5.9 nM.
Consider `CC(=O)n1cc2c(n1)[C@@]1(c3ccccc3)C=C(C#N)C(=O)[C@@H](C)[C@@H]1CC2` [Example 28, (5aS,6S,9aR)-2-acetyl-6-methyl-7-oxo-9a-phenyl-4,5,5a,6,7,9a-hexahydro-2H-benzo[g]indazole-8-carbonitrile], for which the IC50 amounted to 39 nM.
Regarding `C[C@@H]1C(=O)C(C#N)=C[C@]2(c3ccccc3)c3nc(-c4ccncc4)ncc3CC[C@@H]12` [Example 29, (6aS,7S,10aR)-7-methyl-8-oxo-10a-phenyl-2-(pyridin-4-yl)-5,6,6a,7,8,10a-hexahydrobenzo[h]quinazoline-9-carbonitrile], the IC50 amounted to 6.36 nM.
The value for `CCN(CC)c1ncc2c(n1)[C@@]1(c3ccccc3)C=C(C#N)C(=O)[C@@H](C)[C@@H]1CC2` [Example 30, (6aS,7S,10aR)-2-(diethylamino)-7-methyl-8-oxo-10a-phenyl-5,6,6a,7,8,10a-hexahydrobenzo[h]quinazoline-9-carbonitrile] was 56.8 nM.
The value for `CC(C)Oc1nc(-c2ccccc2F)nc2c1CC[C@H]1[C@H](C)C(=O)C(C#N)=C[C@]21c1ccccc1` [Example 31, (6aS,7S,10aR)-2-(2-fluorophenyl)-4-isopropoxy-7-methyl-8-oxo-10a-phenyl-5,6,6a,7,8,10a-hexahydrobenzo[h]quinazoline-9-carbonitrile] was 272 nM; that for `COC(=O)n1cc2c(n1)[C@@]1(c3ccccc3)C=C(C#N)C(=O)[C@@H](C)[C@@H]1CC2` [Example 32, methyl (5aS,6S,9aR)-8-cyano-6-methyl-7-oxo-9a-phenyl-4,5,5a,6,7,9a-hexahydro-2H-benzo[g]indazole-2-carboxylate] was 25.9 nM; that for `Cc1nc(-c2cn[nH]c2)c2c(n1)[C@@]1(c3ccccc3)C=C(C#N)C(=O)[C@@H](C)[C@@H]1CC2` [Example 34, (6aS,7S,10aR)-2,7-dimethyl-8-oxo-10a-phenyl-4-(1H-pyrazol-4-yl)-5,6,6a,7,8,10a-hexahydrobenzo[h]quinazoline-9-carbonitrile] was 2.86 nM.
To `Cc1nc(-c2cnn(C)c2)c2c(n1)[C@@]1(c3ccccc3)C=C(C#N)C(=O)[C@@H](C)[C@@H]1CC2` [Example 35, (6aS,7S,10aR)-2,7-dimethyl-4-(1-methyl-1H-pyrazol-4-yl)-8-oxo-10a-phenyl-5,6,6a,7,8,10a-hexahydrobenzo[h]quinazoline-9-carbonitrile] belongs 4.86 nM; to `C[C@@H]1C(=O)C(C#N)=C[C@]2(c3ccccc3)c3nn(S(C)(=O)=O)cc3CC[C@@H]12` [Example 36, (5aS,6S,9aR)-6-methyl-2-(methylsulfonyl)-7-oxo-9a-phenyl-4,5,5a,6,7,9a-hexahydro-2H-benzo[g]indazole-8-carbonitrile], 69.3 nM.
On to `C[C@@H]1C(=O)C(C#N)=C[C@]2(c3ccccc3)c3nn(C(=O)Oc4ccccc4)cc3CC[C@@H]12` [Example 37, phenyl (5aS,6S,9aR)-8-cyano-6-methyl-7-oxo-9a-phenyl-4,5,5a,6,7,9a-hexahydro-2H-benzo[g]indazole-2-carboxylate], for which the IC50 is 60.5 nM.
The value for `C[C@@H]1C(=O)C(C#N)=C[C@]2(c3ccccc3)c3nn(C(=O)c4ccccc4)cc3CC[C@@H]12` [Example 38, (5aS,6S,9aR)-2-benzoyl-6-methyl-7-oxo-9a-phenyl-4,5,5a,6,7,9a-hexahydro-2H-benzo[g]indazole-8-carbonitrile] was 75.2 nM.
Regarding `C[C@@H]1C(=O)C(C#N)=C[C@]2(c3ccccc3)c3nn(C(=O)CNC(=O)OC(C)(C)C)cc3CC[C@@H]12` [Example 39, tert-butyl {2-[(5aS,6S,9aR)-8-cyano-6-methyl-7-oxo-9a-phenyl-4,5,5a,6,7,9a-hexahydro-2H-benzo[g]indazol-2-yl]-2-oxoethyl}carbamate], the IC50 was determined as 53.6 nM.
The value for `C[C@@H]1C(=O)C(C#N)=C[C@]2(c3ccccc3)c3nn(C(=O)c4cscn4)cc3CC[C@@H]12` [Example 40, (5aS,6S,9aR)-6-methyl-7-oxo-9a-phenyl-2-(1,3-thiazol-4-ylcarbonyl)-4,5,5a,6,7,9a-hexahydro-2H-benzo[g]indazole-8-carbonitrile] was 45.4 nM.
As for `C[C@@H]1C(=O)C(C#N)=C[C@]2(c3ccccc3)c3nn(S(=O)(=O)c4ccccc4)cc3CC[C@@H]12` [Example 41, (5aS,6S,9aR)-6-methyl-7-oxo-9a-phenyl-2-(phenylsulfonyl)-4,5,5a,6,7,9a-hexahydro-2H-benzo[g]indazole-8-carbonitrile], the IC50 came out at 1180 nM.
The value for `C[C@@H]1C(=O)C(C#N)=C[C@]2(c3ccccc3)c3nn(C(=O)CO)cc3CC[C@@H]12` [Example 42, (5aS,6S,9aR)-2-glycoloyl-6-methyl-7-oxo-9a-phenyl-4,5,5a,6,7,9a-hexahydro-2H-benzo[g]indazole-8-carbonitrile] was 34.2 nM; that for `COc1cccc(-c2nc(C)nc3c2CC[C@H]2[C@H](C)C(=O)C(C#N)=C[C@]32c2ccccc2)c1` [Example 43, (6aS,7S,10aR)-4-(3-methoxyphenyl)-2,7-dimethyl-8-oxo-10a-phenyl-5,6,6a,7,8,10a-hexahydrobenzo[h]quinazoline-9-carbonitrile] was 16.5 nM.
